Laboratory results from patent publication US10502741B2, “Means and methods for detecting activated MALT1” (Helmholtz Zentrum München Deutsches Forschungszentrum für …, priority 2014, dated 2019).
Primed or numbered codes have the meaning given here. The star is where a group is joined. FITC = O=C1OC2(c3ccc(O)cc3Oc3cc(O)ccc32)c2ccc(NC(=S)*)cc21; AOMK = acyloxymethyl ketone C-terminal warhead; AOMK″ = acyloxymethyl ketone; BODIPY = not defined here

Key:
active MALT1 [1] = biological target: T1, active MALT1 (Homo sapiens, UniProt Q9UDY8); test: Labeling with diagnostic inhibitor in cell extracts (gel-based, fluorescence scan): active MALT1 band; conditions: for effect of inhibitor pretreatment on probe 5 labeling of active MALT1: Jurkat T cells, 10 μM inhibitor before stimulation; for selectivity / background of probe labeling in extracts: Jurkat T cell extracts; for detection of endogenous active MALT1-probe complexes: Jurkat T cells stimulated or not, whole cell lysates
T1 construct: endogenous in cells; host or cells: Jurkat T cells, primary human PBMCs and T cells, DLBCL cell lines (HBL1, TMD8, OCI-Ly3, OCI-Ly10, U2932, RIVA, BJAB, Su-DHL-4, Su-DHL-6)
T1 sequence (Q9UDY8 1-824): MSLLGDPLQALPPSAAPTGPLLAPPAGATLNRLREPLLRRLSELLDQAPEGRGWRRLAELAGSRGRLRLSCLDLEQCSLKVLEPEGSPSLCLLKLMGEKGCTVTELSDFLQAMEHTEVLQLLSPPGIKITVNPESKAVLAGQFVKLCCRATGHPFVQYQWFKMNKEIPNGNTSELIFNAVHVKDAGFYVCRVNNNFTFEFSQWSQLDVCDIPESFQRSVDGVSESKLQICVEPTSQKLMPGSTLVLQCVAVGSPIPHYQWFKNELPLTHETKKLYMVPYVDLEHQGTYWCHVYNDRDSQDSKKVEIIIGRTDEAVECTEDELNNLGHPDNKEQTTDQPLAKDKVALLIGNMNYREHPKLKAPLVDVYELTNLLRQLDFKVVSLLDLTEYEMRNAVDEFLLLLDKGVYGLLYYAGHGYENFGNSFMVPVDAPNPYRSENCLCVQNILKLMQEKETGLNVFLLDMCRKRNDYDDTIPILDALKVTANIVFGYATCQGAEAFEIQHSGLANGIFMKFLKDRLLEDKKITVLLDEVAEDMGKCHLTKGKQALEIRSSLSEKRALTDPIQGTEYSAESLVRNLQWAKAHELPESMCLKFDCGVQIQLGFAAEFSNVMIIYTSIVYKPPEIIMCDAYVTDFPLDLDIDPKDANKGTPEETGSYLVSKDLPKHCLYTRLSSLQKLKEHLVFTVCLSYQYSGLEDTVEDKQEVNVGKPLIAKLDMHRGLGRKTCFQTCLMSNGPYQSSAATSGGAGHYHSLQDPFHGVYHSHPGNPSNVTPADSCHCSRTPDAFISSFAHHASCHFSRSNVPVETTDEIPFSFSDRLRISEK
Description: (§1) Jurkat T cells were cultured in standard RPMI medium containing 10% FCS, 100 U/ml Penicillin/Streptomycin and 2 mM Glutamin. DNA transfection of 6 μg DNA in 8×10^6 Jurkat T cells was performed by electroporation in a GenePulser Xcell (BioRad) with a 220 Volt pulse. For siRNA experiments, Jurkat T cells were transfected with 100 nM siRNA and Atufect transfection reagent (Silence Therapeutics, Berlin). Jurkat T cells were stimulated either with 200 ng/ml PMA (phorbol 12-myristate 13-acetate) and 300 ng/ml Ionomycin (both Calbiochem) or CD3/CD28 antibody co-ligation (human CD3: 1 μg/ml; human CD28: 4 μg/ml; mouse IgG1: 2 μg/ml; mouse IgG2a: 2 μg/ml; BD Biosciences). DLBCL cell lines (HBL1, TMD8, OCI-Ly3, U2932, RIVA, BJAB, Su-DHL-4 and Su-DHL-6) were cultured in standard RPMI medium containing 20% FCS, 100 U/ml Penicillin/Streptomycin and 2 mM Glutamin. OCI-Ly10 cell line was cultured in IMDM containing 20% human serum, 100 U/ml Penicillin/Streptomycin, 2 U/ml heparine, 50 μM β-mercaptoethanol. Inhibitors 10 μM (z-VRPR-FMK, Mepazine, Thioridazine, CA-074Me) were added to the cells in media for 1 h, prior to stimulation and labeling with diagnostic MALT1 inhibitor.
(§2) Jurkat T cells (1-2×10^7), primary human PBMCs or primary human T cells (0.25 or 1×10^7) were lysed in 150 μl co-IP buffer without protease inhibitors. DLBCL (3×10^7) were lysed in 250 μl buffer. After centrifugation (14000 rpm, 10 min, 4° C.), 100 μl extract (DLBCL: 200 μl) was stained with probe 5 or probe 6 (3 μM end) for 50 min at 29° C., mixed with 4× loading dye and boiled.

active MALT1 [2] = biological target: T1, active MALT1; test: ELISA-based assay (MALT1 ELASA) on streptavidin-coated plates with MALT1 antibody detection; type: cell-based; conditions: for effect of inhibitor on active MALT1 signal in DLBCL cells: inhibitor-treated (10 μM) DLBCL cells
Description: as §1
Untreated DLBCL (1×10^7), primary T cells (0.25×10^7) or Jurkat T cells (0.2-1×10^7) (stimulated or not) were lysed in 300 μl co-IP buffer without protease inhibitors, centrifuged, incubated with probe 7 (concentration as depicted) for 1 h at RT, then transferred to streptavidin-coated plates (96 well, clear) and incubated o/n at 4° C. After blocking with 2% BSA in PBS-T, detection was performed by incubation with MALT1 primary antibody (1 h, RT) and HRP-coupled secondary antibody (1 h, RT). […] was determined after TMB substrate incubation in a photometer (Bio-Tek).

cathepsin B [3] = biological target: T2, cathepsin B (Homo sapiens, UniProt P07858); test: Labeling with diagnostic inhibitor in cell extracts (gel-based, fluorescence scan): about 30 kDa cathepsin B band; set-up: endogenous in cells; host or cells: Jurkat T cells; HBL1 and other DLBCL cell lines; conditions: for effect of inhibitor pretreatment on the band below 34 kDa (cathepsin B) labeled by probe 5: Jurkat T cells, 10 μM inhibitor
Description: as §1, §2

MALT1 = biological target: T3, MALT1 (Homo sapiens, UniProt Q9UDY8); test: MALT1 in vitro cleavage assay using fluorescent substrate; type: biochemical
T3 construct: GST
T3 sequence (Q9UDY8 1-824): T1 sequence (Q9UDY8 1-824)
Description: (§3) C) Impact of indicated compounds on MALT1, Caspase8 and cathepsin B was tested in in vitro cleavage assays using fluorescent substrates. Results and SD from three independent experiments are shown.
Preferably, MALT1 activity is determined in a MALT1 cleavage assay. […] The assay may be performed in cleavage buffer comprising for example 50 mM MES, 1 M sodium citrate pH 7, 150 mM NaCl, 10% sucrose, 0.1% chaps, 10 mM DTT. Catalytically active MALT1 cleaves the substrate and an increase of AMC fluorescence can be measured.

active MALT1 [4] = biological target: T1, active MALT1; test: Probe 7-pulldown with streptavidin beads and western blot; type: cell-based
Description: as §1
Untreated DLBCL (1-2×10^7) or Jurkat T cells (stimulated with PMA/Ionomycin or CD3/28 or left untreated; 1-2×10^7), were lysed in 500 μl co-IP buffer without protease inhibitors, centrifuged, incubated with probe 7 (concentration as depicted) for 1 h at RT then incubated with streptavidin beads for 2 h at 4° C. Precipitate was washed, analysed by SDS-PAGE and western blot.

cathepsin B [5] = biological target: T2, cathepsin B; test: Cathepsin B cleavage assay (zRR-AMC substrate); type: biochemical; set-up: purchased BioVision; conditions: 0.2 ng cathepsin B, 1 mM zRR-AMC, 2 h at 30° C.
Description: as §3
0.2 ng cathepsin B together with probe 5, z-VRPR-FMK (SEQ ID No. 6), mepazine or CA-074 was incubated with 1 mM zRR-AMC substrate for 2 h at 30° C. Assay was performed in 0.1 M sodium acetate pH 5.5, 10 mM DTT and 0.1 mM EDTA. Again, increase of AMC fluorescence is measured in a Synergy 2 Microplate Reader (Biotek).

[6] = HBL1 cells, inhibitors 10 μM each

Molecule: CCCNC(=O)[C@H]1O[C@@H]1C(=O)N[C@H](C(=O)N1CCC[C@H]1C(=O)OC)[C@@H](C)CC [CA-074Me]
- effect of inhibitor pretreatment on probe 5 labeling of active MALT1 (active MALT1 [1]): inducible MALT1 labeling was unaffected
- effect of inhibitor on active MALT1 signal in DLBCL cells (active MALT1 [2]; probe 7): resistant
- effect of inhibitor on the about 30 kDa cathepsin B signal labeled by probe 6 (cathepsin B [3]; [6]): sensitive
- effect of inhibitor pretreatment on the band below 34 kDa (cathepsin B) labeled by probe 5 (cathepsin B [3]): completely abolished detection

Molecule: CCCNC(=O)[C@H]1O[C@@H]1C(=O)N[C@H](C(=O)N1CCC[C@H]1C(=O)O)[C@@H](C)CC [CA-074]
- inhibition of MALT1 protease activity in vitro (MALT1): neither the non-competitive MALT1 inhibitor mepazine, nor the irreversible cathepsin B specific inhibitor CA-074 showed any cross-inhibition

Molecule: C=CC(=O)N1CCC[C@@H](n2nc(-c3ccc(Oc4ccccc4)cc3)c3c(N)ncnc32)C1 [Ibrutinib]
- reduction of MALT1 activity (active MALT1 [2]; 0.5 nM, ABC DLBCL cells): 50-60%

Molecule: CN1CCC[C@H](CN2c3ccccc3Sc3ccccc32)C1 [S-mepazine, 10-{[(3S)-1-methylpiperidin-3-yl]methyl}-10H-phenothiazine]
- cellular MALT1 inhibition, inhibitor profiling (active MALT1 [2]; ABC DLBCL cell line OCI-Ly3, increasing concentrations): slightly more potent
- concentrations at which MALT1 was inhibited (active MALT1 [2]; all ABC DLBCL cell lines): 0.3 to 10 µM

Molecule: CN1CCCC(CN2c3ccccc3Sc3ccccc32)C1 (centres unmarked) [mepazine, 10-[(1-methylpiperidin-3-yl)methyl]-10H-phenothiazine]
- effect of inhibitor on formation of MALT1-probe 7 complexes (active MALT1 [4]; Jurkat T cells pretreated with 10 μM inhibitors, 0.1 μM probe 7): blocked
- effect of inhibitor on probe 6 labeling of active MALT1 (active MALT1 [1]; [6]): sensitivity
- effect of inhibitor pretreatment on probe 5 labeling of active MALT1 (active MALT1 [1]): prevents binding of diagnostic MALT1-inhibitor
- inhibition of cathepsin B activity in vitro (cathepsin B [5]): neither the non-competitive MALT1 inhibitor mepazine, nor the irreversible cathepsin B specific inhibitor CA-074 showed any cross-inhibition
- effect of inhibitor on active MALT1 signal in DLBCL cells (active MALT1 [2]; probe 7): strongly reduced
- effect of inhibitor pretreatment on the band below 34 kDa (cathepsin B) labeled by probe 5 (cathepsin B [3]): unaffected

Molecule: CSc1ccc2c(c1)N(CCC1CCCCN1C)c1ccccc1S2 (centres unmarked) [thioridazine, 10-[2-(1-methylpiperidin-2-yl)ethyl]-2-(methylthio)phenothiazine]
- effect of inhibitor pretreatment on probe 5 labeling of active MALT1 (active MALT1 [1]): prevents binding of diagnostic MALT1-inhibitor
- effect of inhibitor pretreatment on the band below 34 kDa (cathepsin B) labeled by probe 5 (cathepsin B [3]): unaffected

Molecule: Ac-Lys(biotin)-LRSR-AOMK [probe 7]
- detection of MALT1-probe 7 complexes after pulldown (active MALT1 [4]; Jurkat T cells, P/I stimulated or not): exclusively detected in extracts of P/I stimulated Jurkat T cells
- probe concentration sufficient to completely remove active MALT1 from the extracts (active MALT1 [4]; extracts of stimulated T cells, supernatant checked with probe 6): 100 nM
- constitutively active MALT1 after pulldown in DLBCL cells (active MALT1 [4]; untreated ABC and GCB DLBCL cells, western blot): exclusively in ABC, but not in GCB DLBCL cells
- probe concentration sufficient to obtain a robust increase in active MALT1 (active MALT1 [2]; 2×10^6 Jurkat T cells stimulated or not): ≤ 10 nM
- MALT1 activity in ABC versus GCB DLBCL cells, ELISA (active MALT1 [2]; DLBCL cell lines, probe 7): significant increase in MALT1 activity in ABC DLBCL cells when compared to GCB DLBCL cells
- MALT1 binding to streptavidin-coated plates (active MALT1 [2]; Jurkat T cells, stimulated or not): only detected in P/I or CD3/CD28 stimulated Jurkat T cells
- active MALT1 in stimulated primary T cells, ELISA (active MALT1 [2]; primary human T cells, 0.1 μM probe 7): robust induction of active MALT1

Molecule: BODIPY-ALVSR-AOMK ({BODIPY}-ALVSR-{AOMK″}; reading uncertain)
- selectivity / background of probe labeling in extracts (active MALT1 [1]): unspecific background labeling of unknown identity at approx. 40 kDa
- detection of endogenous active MALT1-probe complexes (active MALT1 [1]): exclusively detected after stimulation
- effect of titrating probe concentration on labeling (active MALT1 [1]; extracts of stimulated Jurkat T cells): decrease background labeling, while active MALT1 activity stays stable

Molecule: FITC-LRSR-AOMK ({FITC}-LRSR-{AOMK}) [probe 5]
- active MALT1 signal in lymphoma whole cell extracts (active MALT1 [1]; ABC DLBCL cells (HBL1 for probe 6)): not detectable
- selectivity / background of probe labeling in extracts (active MALT1 [1]): MALT1 was the only inducible band
- detection of endogenous active MALT1-probe complexes (active MALT1 [1]): exclusively detected after T cell stimulation
- detection of active MALT1 in primary cells (active MALT1 [1]; extracts of P/I-stimulated PBMCs and human T cells): detected active MALT1
- inhibition of MALT1 protease activity in vitro (MALT1): inhibit MALT1
- inhibition of cathepsin B activity in vitro (cathepsin B [5]): abrogated cathepsin B activity even though slightly less efficient
